Source: the OPERA property sets (Mansouri et al. 2018)

Compound	logP
Cc1ccccc1C1=NCC(=O)Nc2ccc(Cl)cc21	3.12
COc1c(Cl)cc(Cc2cnc(N)nc2N)cc1Cl	2.78
COC(=O)C(C#N)=NNc1ccccc1C(F)(F)F	3.7
CCCNP(=O)(OC)SC (configuration not stated)	0.65
O=C1CN=C(c2ccccc2F)c2cc([N+](=O)[O-])ccc2N1	2.15
O=[N+]([O-])c1nccnc1NCC(O)CO (configuration not stated)	-0.49
CN(C)CCCC(c1ccccc1)c1ccc(C(C)(C)C)cc1 (configuration not stated)	5.72
COc1cc(CC(=O)O)ccc1OCc1ccccc1	2.59
CNC(=O)C(Cc1ccccc1)NC(C)=O (configuration not stated)	0.4
CNC1CC2OC1c1ccccc12 (configuration not stated)	0.91
O=C1CC2OCCC3CN4CCC56c7ccccc7N1C5C2C3CC46 (configuration not stated)	1.62
CN(C)C(=O)c1ccsc1	0.55
COc1ccccc1C(=O)NCCCCN	0.58
CCCC(C)n1nnc2ccccc21 (configuration not stated)	2.95
CC1CN(N=O)CCN1N=O (configuration not stated)	-0.28
COC(=O)c1c(OC)cc(Cc2cnc(N)nc2N)cc1OC	0.95
CNP(=O)(OC)Oc1cccc(C(C)(C)C)c1 (configuration not stated)	2.65
CC1=NS(=O)(=O)c2c(Cl)cccc2N1	0.62
CCCS(=O)(=O)c1cc(OC)c(OC)c(OC)c1	1.56
CC(=O)NNC(=O)c1ccccn1	-0.57
COCC1=Nc2cc(Cl)ccc2S(=O)(=O)N1	1.12
CN(C)C(=O)Oc1ccc([N+](=O)[O-])cc1	1.5
CCOC(=O)C(C#N)=NNc1cc(C(F)(F)F)ccc1Cl	4.45
OCC1C(Cl)C(Cl)C(Cl)C(Cl)C1Cl (configuration not stated)	2.94
S=C=Nc1ccc(C=Cc2ccccc2)cc1	5.85
CCOC(=O)N(C)SN(C)C(=O)ON=C(C)SC	1.9

Compound	logP
O=C(O)c1cccc(CSc2ccccc2)c1O	4.28
CCCCCCCC[n+]1ccc(C)c(C)c1.[I-]	-0.41
O=NN(CCCl)C(=O)NC1CCC(O)CC1 (configuration not stated)	1.11
CSc1nnc(CC(C)C)c(=O)n1N	1.39
O=NN1CCC(=O)CC1	-0.47
O=[N+]([O-])c1ccc(C=Cc2nccc(Cl)n2)o1	1.31
O=C1CCCN1CCOc1ccc([N+](=O)[O-])cc1	1.33
C[N+](C)(C)Cc1cccc(O)c1.[Br-]	-2.4
CN(C)C(=O)CCC(=O)OCC(=O)C1(O)CCC2C3CCC4=CC(=O)CCC4(C)C3C(O)CC21C (configuration not stated)	2.03
Cc1ccccc1NC(=O)CN1CCCCC1	2.26
CCN1C(=O)CN=C(c2ccccc2)c2cc(N)ccc21	1.81
CCCCCC(=O)N[C@@H]1C(=O)N2[C@@H]1SC(C)(C)[C@@H]2C(=O)O	2.37
c1cncc(CCN2CCCCC2)c1	1.66
O=S1(=O)NC(C2CC2)=Nc2cc(Cl)ccc21	1.98
Cc1cc(=O)[nH]n1-c1ccncn1	1.4
C[N+](C)(C)Cc1cccc(Cl)c1.[Br-]	-1.81
COc1ccccc1NC(=O)C(Cl)Cl	2.41
CN(C)C1=NC(=O)C(=Cc2ccc([N+](=O)[O-])o2)S1	1.14
CC1=C(C(=O)O)N2C(=O)C(NC(=O)Cc3cccs3)C2SC1 (configuration not stated)	0.61
NC(=O)NC1OC(=O)c2ccccc21 (configuration not stated)	0.49
Nc1ccccc1C(c1ccc(O)cc1)c1ccc(O)cc1	3.16
COc1cc(C)c(Cc2cnc(N)nc2N)cc1OC	1.23
C[N+](C)(C)Cc1cccc(C(N)=O)c1.[Br-]	-2.8
CCCCCCCCCCCC[n+]1cc(C)cc(C)c1.[I-]	1.91
O=C(Nc1ccccc1)NC(CO)(CO)CO	0.43
O=C(O)C1CCc2ccccc2O1 (configuration not stated)	1.9

Compound	logP
CC(=O)N(CC(O)CO)c1c(I)c(C(=O)NCC(O)CO)c(I)c(C(=O)NCC(O)CO)c1I (configuration not stated)	-3.05
O=S(=O)(Nc1ccc(F)cc1)C(F)(F)F	3.25
O=C(O)Cc1ccc(S(=O)(=O)F)cc1	1.86
CSC(C)=NOC(=O)N(C)SN(C)C(=O)c1ccccc1	2.2
CC1CCN(N=O)CC1	1.05
CC1(C)SC2C(NC(=O)Cc3ccc(Cl)cc3Cl)C(=O)N2C1C(=O)O (configuration not stated)	3.3
O=S(=O)(Nc1cn[nH]c1)c1ccccc1	0.87
O=C1CCC(=O)N1c1ccc(Cl)cc1	0.96
O=c1cn[nH]c2ccccc12	0.82
CSC(C)=NOC(=O)N(C)SN(C)C(=O)N(C)C	1.2
Oc1ccc(C(c2ccc(O)cc2)c2ccccn2)cc1	2.84
CNC(=O)Oc1ccccc1SC	1.51
COc1ccc(Cc2cnc(N)nc2N)cc1N	0.76
CCOC(=O)c1ccc(Cl)nn1	0.12
CCC(=O)OCC(=O)[C@@]1(O)[C@@H](C)C[C@H]2[C@@H]3CCC4=CC(=O)C=C[C@]4(C)[C@@]3(F)[C@@H](O)C[C@@]21C	3.06
COc1ccc(Br)cc1Cc1cnc(N)nc1N	2.44
CN1C(=O)CN=C(c2ccccc2)c2cc(N)ccc21	1.46
COC12C(COC(N)=O)C3=C(C(=O)C(C)=C(N)C3=O)N1CC1C2N1C(=O)OCc1ccccc1 (configuration not stated)	1.34
CN(C=O)c1ccc(S(=O)(=O)N(C)C)cc1	0.4
CCN(CC)/N=N/c1nc[nH]c1C(N)=O	0.78
OCC1OC(Oc2ccccc2I)C(O)C(O)C1O (configuration not stated)	0.27
CC(C)CC1=Nc2cc(Cl)ccc2S(=O)(=O)N1	2.35
Nc1ncnc2nc(-c3cccc([N+](=O)[O-])c3)[nH]c12	1.93
CCOC(=O)c1[nH]cnc1N=NN(C)C	0.44
CC12CC3CC(C1)CC(N)(C3)C2	3.01
O=S1(=O)NC(c2cccs2)=Nc2ccccc21	1.68

Compound	logP
Cc1[nH]c(=O)n(OCCCl)c(=O)c1Br	0.3
COc1cccc(C=C(C(C)=O)C(C)=O)c1	1.79
O=S(=O)(Nc1ccc(I)cc1)C(F)(F)F	4.39
CCCCCC[n+]1ccccc1C.[I-]	-1.71
COc1cc(Cc2cnc(N)nc2N)cc(OC)c1OCc1ccccc1	2.46
Cc1ccnc2c(O)ccc(C)c12	2.71
CCCCCCNC(=O)NN	0.46
CC1(C)N=C(N)N=C(N)N1c1ccc(N)cc1	-0.59
CC(C)CN(CC(C)C)C(=O)C=Cc1ccc2c(c1)OCO2	4.37
Clc1ccccc1-c1ccccc1Cl	4.97
Cc1ccccc1C(=N)c1ccccc1C	3.31
CCS(=O)(=O)CCn1ccnc1[N+](=O)[O-]	-0.58
O=C1CCC(=O)N1c1ccc(F)cc1	0.29
OCC1OC(Oc2cccc(C(F)(F)F)c2)C(O)C(O)C1O (configuration not stated)	0.49
CCc1ccc(N=NN(C)C(C)=O)cc1	3.36
O=C1CCC(=O)N1c1ccccc1C(F)(F)F	0.76
NC(=O)CCCCCn1nnc2ccccc21	0.79
CNc1nc(=O)cc(-c2ccc([N+](=O)[O-])o2)s1	0.86
CN(C)C(=O)Nc1cccc(O)c1	0.51
OCCCCCCn1nnc2ccccc21	1.71
FC(F)(F)c1nc2c(Cl)cc(Cl)cc2[nH]1	3.49
CCc1ccccc1N1C(=O)CCC1=O	0.64
Cc1cc(-n2[nH]c(C)cc2=O)nc(C)n1	0.89
CCCCc1nnc(N)o1	0.65
CC1CN(N=O)C(C)CN1N=O (configuration not stated)	0.15
OCCCCCn1nnc2ccccc21	1.51

Compound	logP
Cc1cc(C)c(NC2=NCCN2)c(C)c1	2.32
COc1cc(OC)c(OC)cc1Cc1cnc(N)nc1N	1.17
CCCCCC[n+]1ccccc1.[Br-]	-2.03
CN(C)C(=O)Oc1ccccc1Br	2.17
C=CCOn1c(=O)[nH]c(C)c(Br)c1=O	0.32
CCOC(=O)c1cnc2ccccn2c1=O	0.25
CC(C)Sc1nnc(C(C)C)c(=O)n1N	2.06
COCN1C(=O)CN=C(c2ccccc2)c2cc(N)ccc21	1.32
CSc1ccc2c(c1)C(c1ccccc1)=NCC(=O)N2	2.92
CCOC(=O)CN(C(=O)CCl)c1ccccc1	1.6
CCCC(C)C1(CC)C(=O)NC(=O)N(C)C1=O (configuration not stated)	2.45
O=NN1CCCCCCC1	1.48
CNP(=O)(OC)Oc1ccc(Cl)cc1Cl (configuration not stated)	2.41
CCC(=O)c1ccc(OC(=O)NC)cc1	1.55
OCC1OC(SCCCc2ccccc2)C(O)C(O)C1O (configuration not stated)	0.38
CS(=O)(=O)Nc1cccc(NS(C)(=O)=O)c1	0.07
COc1cc(Cc2cnc(N)nc2N)cc(OC)c1O	0.37
CCC1=Nc2cc(Cl)ccc2S(=O)(=O)N1	1.61
COc1ccc(Cc2cnc(N)nc2N)cc1C	1.91
CC(C)Oc1ccccc1OC(=O)N(C)C	2.06
CCCOn1c(=O)[nH]c(C)c(Br)c1=O	0.76
CCCN(CC)CC(F)(F)F	2.38
COC(=O)C(C#N)=NNc1ccccc1	2.59
Clc1cc(Cl)c(Cl)c(-c2c(Cl)ccc(Cl)c2Cl)c1	7.15
Cn1c(C(C)(C)O)cnc1[N+](=O)[O-]	0.43
CC(=O)c1ccccc1OC(=O)N(C)C	0.93

Compound	logP
CN(N=O)C(=O)N(C)c1ccccc1	1.58
Cc1cccc(C)c1NC(=O)CN(C)C	0.94
O=C(O)COc1cccc(SC(F)(F)F)c1	2.86
CN(C)c1ccc(C(N)=O)cc1	1.14
CC(C)Oc1cn[nH]c1	1.13
CCOC(=O)C(=Cc1cccc(OC)c1OC)C(C)=O	2.21
COC(=O)C(C#N)=NNc1cc(C(F)(F)F)ccc1Cl	4.42
Oc1ccc(C(c2ccc(O)cc2)c2cccnc2)cc1	3.13
CCOC(=O)C(=Cc1cccc(C)c1)C(C)=O	2.8
COC(=O)C(C#N)=NNc1ccc(Cl)cc1C(F)(F)F	4.66
CN(C)C(=O)Cc1cccs1	0.65
CC(C)NC(=O)NN	-1.3
CN1CCN(C)C1=Nc1ncc([N+](=O)[O-])s1	0.95
O=C(O)Cc1ccc(OCc2ccccc2)c(Cl)c1	3.43
C[N+](C)(C)Cc1ccncc1.[Br-]	-3.95
CCCc1nnc(N)o1	0.23
Nc1cc(OCC(=O)O)ccc1Cl	1.16
CCOc1ccc(OC(C)=O)cc1	1.95
COP(=O)(Oc1cc(Cl)c(Br)cc1Cl)c1ccccc1 (configuration not stated)	4.58
Cc1ccccc1C(=N)c1ccccc1	3.21
COc1cccc(NC=O)c1	1.25
CN(N=Nc1ccc(C(N)=O)cc1)C(C)(C)C	2.61
